Converted amounts (≈) assume the structure as drawn.
Columns and labels:
Format in all cases: physicochemical
[1] = Solubility (wt.% at 20° C.) in water and alcohol-water solutions; conditions: for solubility: water
Text: (§1) The solubility of pure allantoin at room temperature is 0.6 wt. % in water, 1.0 wt. % in glycerol and 0.3 wt. % in 50 vol. % aqueous solution of ethyl alcohol. In contrast, the solubilities of the compounds of the present invention in the aforementioned solvents are shown in Table I. It will be understood from Table I that all compounds of the present invention can be dissolved to make present in the solution much more allantoin than can be obtained by dissolving allantoin, per se.
Solubility (wt.% at 20° C.)

physchem = assay: physchem
Text: as §1

[2] = Dissolved amount of allantoin component of the compounds; conditions: 20° C.
Text: as §1
Also, comparing the dissolved amount of the allantoin component of the compounds according to the present invention and that allantoin, per se, the former is about fifteen times greater than that of allantoin, per se, and the effects of allantoin are thereby improved.

[3] = pH of a saturated solution in water
Text: Referring to the pH of a saturated solution obtained by dissolving the compounds of the present invention, respectively, in water, the solution pH of allantoin/arginine molecular compound was 8.5, that of allantoin/ornithine molecular compound was 9.0 and that of allantoin/lysine compound was 8.9. When the pH of the respective saturated solutions of compounds according to the invention was adjusted, with HCl solution, to the pH value of a saturated solution of pure allantoin in water, namely 5 to 6, and even though the saturated solutions of the compounds according to the invention contain a higher concentration of allantoin than that of a saturated solution of pure allantoin, no crystals of allantoin precipitated from the respective solutions of compounds according to the invention.

Question: With `NC(=O)NC1NC(=O)NC1=O` (stereo not shown) [Allantoin, allantoin] as the molecule, how does the “Solubility in 50% ethyl alcohol-water solution” value [1] read?
Answer: 0.3 wt.%

Question: What about the “Solubility in 50% isopropyl alcohol-water solution” value [1] of the same molecule?
Answer: 0.1 wt.%

Question: And the “Solubility in 50% methyl alcohol-water solution” value [1]?
Answer: 0.5 wt.%

Question: What about the solubility [1] of the same molecule?
Answer: 6 mg/mL (≈ 37.9 mM)

Question: And the “Solubility of pure allantoin in 50 vol. % aqueous solution of ethyl alcohol” value (physchem)?
Answer: 0.3 wt. %

Question: What about the “Solubility of pure allantoin in glycerol” value (physchem) of the same molecule?
Answer: 1.0 wt. %

Question: What about the solubility (physchem; water) of the same molecule?
Answer: 6 mg/mL (≈ 37.9 mM)

Question: With `N=C(NCCCC(N)C(=O)O)NC1(O)NC(=O)C(NC(N)=O)N1` (stereo not shown) [Allatoin/arginine (1:1) compound (A)] as the molecule, how does the “Solubility in 50% ethyl alcohol-water solution” value [1] read?
Answer: 19.8 wt.%

Question: What about the “Solubility in 50% isopropyl alcohol-water solution” value [1] of the same molecule?
Answer: 9.9 wt.%

Question: And the “Solubility in 50% methyl alcohol-water solution” value [1]?
Answer: 43.3 wt.%

Question: And the solubility [1]?
Answer: 603 mg/mL (≈ 1810 mM)

Question: What about the “Dissolved amount of allantoin component, 50% ethyl alcohol-water solution” value [2] of the same molecule?
Answer: 9.4 wt.%

Question: What about the “Dissolved amount of allantoin component, 50% isopropyl alcohol-water solution” value [2] of the same molecule?
Answer: 4.6 wt.%

Question: What about the “Dissolved amount of allantoin component, 50% methyl alcohol-water solution” value [2] of the same molecule?
Answer: 20.2 wt.%

Question: What about the “Dissolved amount of allantoin component, water” value [2] of the same molecule?
Answer: 28.2 wt.%

Question: And the “pH of a saturated solution in water” value [3]?
Answer: 8.5

Question: With `NC(=O)NC1NC(O)(NCCCC(N)C(=O)O)NC1=O` (stereo not shown) [Allantoin/ornithine compound (B)] as the molecule, how does the “Solubility in 50% ethyl alcohol-water solution” value [1] read?
Answer: 12.3 wt.%

Question: What about the “Solubility in 50% isopropyl alcohol-water solution” value [1] of the same molecule?
Answer: 6.6 wt.%

Question: And the “Solubility in 50% methyl alcohol-water solution” value [1]?
Answer: 26.2 wt.%

Question: What about the solubility [1] of the same molecule?
Answer: 405 mg/mL (≈ 1400 mM)

Question: And the “Dissolved amount of allantoin component, 50% ethyl alcohol-water solution” value [2]?
Answer: 6.7 wt.%

Question: What about the “Dissolved amount of allantoin component, 50% isopropyl alcohol-water solution” value [2] of the same molecule?
Answer: 3.6 wt.%

Question: And the “Dissolved amount of allantoin component, 50% methyl alcohol-water solution” value [2]?
Answer: 14.3 wt.%

Question: And the “Dissolved amount of allantoin component, water” value [2]?
Answer: 22.1 wt.%

Question: What about the “pH of a saturated solution in water” value [3] of the same molecule?
Answer: 9.0

Question: Which “Solubility in 50% ethyl alcohol-water solution” value [1] does the source give for `NC(=O)NC1NC(O)(NCCCCC(N)C(=O)O)NC1=O` (stereo not shown) [Allantoin/lysine compound (C)] here?
Answer: 9.6 wt.%

Question: What about the “Solubility in 50% isopropyl alcohol-water solution” value [1] of the same molecule?
Answer: 4.8 wt.%

Question: What about the “Solubility in 50% methyl alcohol-water solution” value [1] of the same molecule?
Answer: 21.7 wt.%

Question: What about the solubility [1] of the same molecule?
Answer: 300 mg/mL (≈ 986 mM)

Question: What about the “Dissolved amount of allantoin component, 50% ethyl alcohol-water solution” value [2] of the same molecule?
Answer: 5.0 wt.%

Question: What about the “Dissolved amount of allantoin component, 50% isopropyl alcohol-water solution” value [2] of the same molecule?
Answer: 2.5 wt.%

Question: What about the “Dissolved amount of allantoin component, 50% methyl alcohol-water solution” value [2] of the same molecule?
Answer: 11.3 wt.%

Question: What about the “Dissolved amount of allantoin component, water” value [2] of the same molecule?
Answer: 15.6 wt.%

Question: And the “pH of a saturated solution in water” value [3]?
Answer: 8.9
